Entries after “also recorded” stand apart in the source; their conditions may differ. Like-named read-outs stand apart in the source and are kept apart here.
Legend:
SK-MEL-28 [1] = assay: EGF stimulation in the presence of PLX-4702 or U0126 (FIGS. 33 and 34); type: cell-based
From the text: (§1) Protein levels measured include pAKT, pErk, pMEK.

RPMI-7951 [2] = assay: PDGFRβ activation in the absence or presence of U0126 or PLX-4702 (FIG. 36); type: cell-based
From the text: as §1

[3] = tested on: Breast Cancer Cell lines (BT-474, MDA-MD-231, SKBR3, HCC-1937, BT-20, T47D, MCF-7, BT-549); conditions: EGF 200 ng/ml with U0126 1 μM
Method: Breast Cancer Cell lines (BT-474, MDA-MD-231, SKBR3, HCC-1937, BT-20, T47D, MCF-7, BT-549) are propagated and removed from the plate by gentle scraping to simulate a FNA biopsy sample. Following removal, the cells were placed on the SnapPath™ live-tumor-cell processing platform (BioMarker Strategies, LLC) to evoke ex vivo biomarkers. SnapPath™ disperses the sample, enriches for tumor cells, aliquots into test wells, and applies ex vivo stimulation by EGF (200 ng/ml) in the presence or absence of the MEK inhibitor, U0126 (1 μM). Cell lysates are then analyzed using the BioPlex platform for the following phosphoproteins: p-Erk 1/2, p-AKT, p-EGFR, p-Stat3 (BioRad). Functional profiles are generated for each cell line based on the levels of phosphoproteins.

SK-MEL-28 cells = conditions: MEK inhibition, absence of EGF stimulation
From the text: (§2) Protein levels measured include pAKT, pErk, pGSK3β, pP70S6k, pSTAT3, and pEGFR.

SK-MEL-28 [4] = conditions: MEK inhibition of PDGFβ stimulation
From the text: as §2

SK-MEL-2 = conditions: MEK inhibition of PDGFβ stimulation
From the text: as §2

SK-MEL-31 cells = conditions: MEK inhibition, absence of EGF stimulation
From the text: as §2

RPMI-7951 [5] = assay: PDGFβ stimulation and MEK inhibition of PDGFβ stimulation (FIGS. 23 and 24); type: cell-based; conditions: MEK inhibition of PDGFβ stimulation
RPMI-7951 cells = assay: EGF stimulation and PLX or MEK inhibition (FIG. 35); type: cell-based
From the text: Protein levels measured include pAKT, pErk, pMEK and pEGFR.

SK-MEL-21 = conditions: MEK inhibition of PDGFβ stimulation
BT474 = assay: EGF stimulation, phosphoprotein modulation score (BioPlex bead-immunoassay); type: cell-based; conditions: 200 ng/ml EGF 5 minutes
Method: (§3) Breast cancer cell lines (MCF-7, HCC-1937, MDA-MB-231, BT474, and SKBR3) are exposed to either vehicle (control) or stimulated with 200 ng/ml epidermal growth factor (EGF) for 5 minutes then lysed and proteins extracted. Mean Fluorescence Intensity (MFI) levels of six phosphoproteins (pEGFR, pErk, pAKT, pP70S6K, pGSK3β, and pSTAT3) are determined in sextuplet using a multiplexed bead-immunoassay (BioPlex, BioRad) and a modulation score (MS), defined as the log 2 (MFI stimulated/MFI control), calculated for each. Scores are ranked by percentile relative to the median (0.66) and inter-quartile range (IQR) (1.54). Moderate responders are classified as those with MS between the 75th percentile (2.20) and the 75th percentile plus the IQR (3.74). High responders are those MS>3.74. Low responders are those MS falling between the IQR and 75th percentile (1.54-2.20) whereas non responders are classified as MS<1.54.

HCC-1937 = assay: as above; type: cell-based; conditions: 200 ng/ml EGF 5 minutes
Method: as §3

MCF-7 cells = assay: as above; type: cell-based; conditions: 200 ng/ml EGF 5 minutes
Method: as §3

SKBR3 = assay: as above; type: cell-based; conditions: 200 ng/ml EGF 5 minutes
Method: as §3

[6] = tested on: Breast cancer cell lines (MCF-7, HCC-1937, MDA-MB-231, BT474, and SKBR3); assay: EGF stimulation, phosphoprotein modulation score, cell line panel; type: cell-based; conditions: 200 ng/ml EGF 5 minutes
Method: as §3

RPMI-7951 [7] = assay: Melanoma functional signaling profile upon EGF stimulation (FIG. 15); type: cell-based
Method: (§4) Protein levels are measured for pAKT, pERK, pGSK3, p70S6K, pSTAT, pEGFR in RPMI-7951, SK-MEL 2, SK-MEL 28, and SK-MEL 31 cells. Fold changes are calculated for protein level before and after EGF stimulation.

SK-MEL-31 [8] = assay: as above; type: cell-based
Method: as §4

SK-MEL-31 [9] = conditions: BRAF-wt, RAS-wt; cited from earlier work
SK-MEL-28 [10] = conditions: BRAF-mut (V600E); cited from earlier work
RPMI-7951 [11] = conditions: BRAF-mut (V600E), COT Amplification; cited from earlier work
melanoma = conditions: phase I and II clinical trials; cited from earlier work

In the case of `CCCS(=O)(=O)Nc1ccc(F)c(C(=O)c2c[nH]c3ncc(Cl)cc23)c1F` [PLX-4702], the pERk expression (SK-MEL-28 [1]; PLX inhibition plus EGF stimulation) is reported as “reduced” and the pMEK (RPMI-7951 [2]; presence of PLX-4702) is reported as “down-regulated”.
For `N#CC(=C(/N)Sc1ccccc1N)/C(C#N)=C(\N)Sc1ccccc1N` [U0126], the pAKT phosphorylation level ([3]; another functional group) was “unanticipated up-regulation of p-AKT”, the pAKT phosphorylation level ([3]; one functional group) was “low levels of p-AKT inhibition” and the pEGFR phosphorylation level ([3]; one functional group) was “low p-EGFR inhibition”. The pEGFR phosphorylation level ([3]; other functional group) was “unanticipated up-regulation of p-EGFR”, the pEGFR (SK-MEL-28 cells) was “activated” and the pErk (SK-MEL-28 cells) was “inhibited”. The “reduction of pErk” value (SK-MEL-28 [4]) was “approximately 50%”, the pErk (SK-MEL-2) was “not impacted” and the pAkt (SK-MEL-31 cells) was “upregulated”. For the same molecule, the pErk (SK-MEL-31 cells) was “inhibited”, the “reduction of pErk” value (RPMI-7951 [5]) was “approximately 50%” and the pMEK (SK-MEL-28 [1]; MEK inhibitor and EGF) was “increased”. The pErk (RPMI-7951 cells; EGF stimulation, MEK inhibition) was “decreased”, the pMEK down-regulation (RPMI-7951 [2]; MEK inhibition) was “less effective” and the “reduction of pErk” value (SK-MEL-21) was “approximately 50%”.
With epidermal growth factor [EGF] the “EGFR-phosphorylation MS” value (BT474) was 2.57, the “MS for pErk” value (HCC-1937) was 2.89 and the “STAT-3 phosphorylation MS” value (MCF-7 cells) was 2.34. For the same molecule, the “MS for pErk” value (MCF-7 cells; MS = log 2 (MFI stimulated/MFI control)) was 3.92, the “pAKT MS” value (SKBR3) was 1.78 and the EGFR-phosphorylation response class ([6]; all cells except BT474) was “high”. For the same molecule, the “pGSK3β MS” value ([6]; all five cell lines) was under 1.0, the “pP70S6K MS” value ([6]; all five cell lines) was under 1.0 and the “MS of all other markers across the five cell lines” value ([6]; markers not named individually) was under 1.54. The pErk response class ([6]; other lines tested (not MCF-7, HCC-1937)) was “none”, the “induction of pEGFR” value (RPMI-7951 [7]) was “highest induction” and the “induction of pEGFR” value (SK-MEL-31 [8]) was “highest induction”. The pEGFR (RPMI-7951 cells; all EGF modulation) was “dramatically increased”.
In the case of `CCCS(=O)(=O)Nc1ccc(F)c(C(=O)c2c[nH]c3ncc(-c4ccc(Cl)cc4)cc23)c1F` [PLX-4032], the “PLX-4032 Phenotype” value (SK-MEL-31 [9]) is given as “resistance; also recorded: Resistant”, the “PLX-4032 Phenotype” value (SK-MEL-28 [10]) is given as “Sensitive” and the “PLX-4032 Phenotype” value (RPMI-7951 [11]) is given as “resistance; also recorded: Resistant”. The response rate (melanoma) was “remarkable response rate”.

Source: patent publication US9766249B2, “Compositions and methods for prediction of drug sensitivity, resistance, and disease progression” (BioMarker Strategies, LLC, priority 2010, dated 2017)
